Laboratory results from patent US20210253520A1, “POLYMYXIN-BASED COMPOUNDS USEFUL AS ANTIBACTERIAL AGENTS” (UNIVERSITAT DE BARCELONA, priority 2018, published 2021).

What was measured:
Swiss CD-1 female mice = assay: Nephrotoxicity study, histopathological scoring of kidney lesions; type: in vivo; set-up: key to Group Score (GS): mean of per-animal summed 0-4 lesion scores; higher = more nephrotoxic; key to Animal Score (AS), Partial AS: sum of 0-4 lesion parameter scores; higher = more nephrotoxic; conditions: for nephrotoxicity in mice, in words: nephrotoxicity tests carried out in mice, statement of the background
Experimental: Swiss CD-1 female mice weighing approximately 20-24 g (JANVIER Labs) were used, housed in an individually ventilated cage system under specific pathogen-free conditions, and water and food supplied ad libitum. This study plan and the conduct of the study were subjected to review by the Scientific Park of Barcelona Ethical Review Process with the current study procedure Code CEEA (AR) 9377-P2. Mice were administered at a dose of 12 mg/Kg every 2 hours for a total of 6 administrations (total dose 72 mg/Kg), unless otherwise stated. After 20 h, animals were anesthesized with isoflurane, kidneys extracted and prepared for histopathological evaluation, and finally animales were sacrificed. Kidney lesions (tubule dilation, necrosis, tubule casts, cell vacuolization, cell desquamation, and cell swelling) were quantified by microscopical observation (see for instance, Roberts, ACS Infect. Dis., 2015, 1, 568). Each one of these parameters was scored with values from 0 to 4 for each animal, as a global result of observations in kidney. Partial scores have been added up to obtain a final score for each animal (Animal Score, AS). The mean of animal score has been obtained to define the Group Score (GS). The higher the score, the more nephrotoxic a compound is. The nephrotoxicity score has been determined as according to the following table of approximated values: […]

[1] = in vivo; cited from earlier work
P. aeruginosa ATCC 27853 = conditions: comparative examples, extracted from Scientific Reports 5:10558 or WO2017093210A1; cited from earlier work
E. coli ATCC 25922 = conditions: comparative examples, extracted from Scientific Reports 5:10558 or WO2017093210A1; cited from earlier work
P. aeruginosa 36A = conditions: comparative examples, extracted from Scientific Reports 5:10558 or WO2017093210A1; cited from earlier work
K. pneumoniae MB674 = conditions: comparative examples, extracted from Scientific Reports 5:10558 or WO2017093210A1; cited from earlier work
E. coli MB1410 = conditions: comparative examples, extracted from Scientific Reports 5:10558 or WO2017093210A1; cited from earlier work
[2] = cited from earlier work
[3] = Table 8, 12 mg/Kg every 2 hours × 6 sc, total 72 mg/Kg, 3 mice
[4] = Table 6, sum of mouse scores, 12 mg/Kg every 2 hours × 6, subcutaneous, total 72 mg/Kg

Substance: Decanoyl-Dab-Thr-Dab-cyclo(S-S)[Cys-Dab-DPhe-Nle-Dab-Dab-DCys] [compound 2]
- AS, Partial AS (Swiss CD-1 female mice; [3]): 4
- Cell vacuolization, Partial AS (Swiss CD-1 female mice; [3]): 0
- Cloudy swelling, Partial AS (Swiss CD-1 female mice; [3]): 3
- Group Score (GS) (Swiss CD-1 female mice; [3]): 4
- Mice found dead (Swiss CD-1 female mice; [3]): 2 dead
- Tubular casts, Partial AS (Swiss CD-1 female mice; [3]): 0
- Tubular dilaion, Partial AS (Swiss CD-1 female mice; [3]): 1
- Tubular necrosis, Partial AS (Swiss CD-1 female mice; [3]): 0
- nephrotoxicity in mice, in words (Swiss CD-1 female mice; listed as Decanoyl-Dab-Thr-Dab-ciclo(S—S)[Cys-Dab-DPhe-Nle-Dab-Dab-DCys)): showed toxicity
- nephrotoxicity in mice, in words (Swiss CD-1 female mice; listed as Decanoyl-Dab-Thr-Dab-cyclo(S—S)[Cys-Dab-DPhe-Leu-Dab-Dab-DCys]): showed nephrotoxicity
- toxicity in acute toxicity tests, in words [1]: did not showed toxicity

Substance: Polymyxin B [PxB]
- antibacterial activity (MIC) (P. aeruginosa ATCC 27853): 1 µg/mL
- antibacterial activity (MIC) (E. coli ATCC 25922): 0.25 µg/mL
- antibacterial activity (MIC) (P. aeruginosa 36A): 1 µg/mL
- antibacterial activity (MIC) (K. pneumoniae MB674): 0.25 µg/mL
- Mice found dead (Swiss CD-1 female mice; Table 6, 12 mg/Kg every 2 hours × 6, subcutaneous, total 72 mg/Kg): None
- Group Score (GS) (Swiss CD-1 female mice; Table 6, mean of animal scores, 12 mg/Kg every 2 hours × 6, subcutaneous, total 72 mg/Kg): 3.4
- Cell desquamation, Partial AS (Swiss CD-1 female mice; [4]): 0
- Cell vacuolization, Partial AS (Swiss CD-1 female mice; [4]): 1
- Cloudy swelling, Partial AS (Swiss CD-1 female mice; [4]): 21
- Tubular casts, Partial AS (Swiss CD-1 female mice; [4]): 3
- Tubular dilation, Partial AS (Swiss CD-1 female mice; [4]): 1
- Tubular necrosis, Partial AS (Swiss CD-1 female mice; [4]): 1
- Animal Score (AS), Partial AS (Swiss CD-1 female mice; Table 6, sum over all mice, 12 mg/Kg every 2 hours × 6, subcutaneous, total 72 mg/Kg): 27
- AS, Partial AS (Swiss CD-1 female mice; [3]): 7
- Cell vacuolization, Partial AS (Swiss CD-1 female mice; [3]): 0
- Cloudy swelling, Partial AS (Swiss CD-1 female mice; [3]): 6
- Group Score (GS) (Swiss CD-1 female mice; [3]): 2.3
- Mice found dead (Swiss CD-1 female mice; [3]): none
- Tubular casts, Partial AS (Swiss CD-1 female mice; [3]): 0
- Tubular dilaion, Partial AS (Swiss CD-1 female mice; [3]): 1
- Tubular necrosis, Partial AS (Swiss CD-1 female mice; [3]): 0
- antibacterial activity (MIC) (E. coli MB1410): 0.5 µg/mL
- kidney concentration relative to serum concentration ([2]; after 6 h): more than 30 time
- period of accumulation in kidneys ([2]; long after administration, when barely detectable in serum): at least 48 h
